# Patent US10582709B2, “Butyrolactones as herbicides” (FMC Corporation, priority 2015, dated 2020)
# Tests used:
# Assay type in all cases: in vivo
# [1] = test system: wheat (Triticum aestivum); assay: Test A postemergence, wheat; conditions: visual rating after approx. 10 d, 0 to 100 scale, 0 no effect, 100 complete control
# Description: (§1) Seeds of plant species selected from barnyardgrass (Echinochloa crus-galli), crabgrass (large crabgrass, Digitaria sanguinalis), kochia (Kochia scoparia), ragweed (common ragweed, Ambrosia elatior), morningglory (Ipomoea spp.), velvetleaf (Abutilon theophrasti), ryegrass, Italian (Italian ryegrass, Lolium multiflorum), foxtail, giant (giant foxtail, Setaria faberii), wheat (Triticum aestivum), corn (Zea mays), and pigweed (Amaranthus retroflexus), were planted into a blend of loam soil and sand and treated preemergence with a directed soil spray using test chemicals formulated in a non-phytotoxic solvent mixture which included a surfactant. At the same time, plants selected from these crop and weed species and also blackgrass (Alopecurus myosuroides), and galium (catchweed bedstraw, Galium aparine), were planted in pots containing the same blend of loam soil and sand and treated with postemergence applications of test chemicals formulated in the same manner. Plants ranged in height from 2 to 10 cm and were in the one- to two-leaf stage for the postemergence treatment. Treated plants and untreated controls were maintained in a greenhouse for approximately 10 d, after which time all treated plants were compared to untreated controls and visually evaluated for injury. Plant response ratings, summarized in Table A, are based on a 0 to 100 scale where 0 is no effect and 100 is complete control. A dash (-) response means no test result.
# [2] = test system: blackgrass (Alopecurus myosuroides); assay: Test A postemergence, blackgrass; conditions: visual rating after approx. 10 d, 0 to 100 scale, 0 no effect, 100 complete control
# Description: as §1
# [3] = test system: ryegrass, Italian (Italian ryegrass, Lolium multiflorum); assay: Test A postemergence, Italian ryegrass; conditions: visual rating after approx. 10 d, 0 to 100 scale, 0 no effect, 100 complete control
# Description: as §1
# [4] = test system: ryegrass, Italian (Italian ryegrass, Lolium multiflorum); assay: Test A preemergence, Italian ryegrass; conditions: visual rating after approx. 10 d, 0 to 100 scale, 0 no effect, 100 complete control
# Description: as §1
# [5] = test system: pigweed (Amaranthus retroflexus); assay: Test A postemergence, pigweed; conditions: visual rating after approx. 10 d, 0 to 100 scale, 0 no effect, 100 complete control
# Description: as §1
# [6] = test system: barnyardgrass (Echinochloa crus-galli); assay: Test A preemergence, barnyardgrass; conditions: visual rating after approx. 10 d, 0 to 100 scale, 0 no effect, 100 complete control
# Description: as §1
# [7] = test system: foxtail, giant (giant foxtail, Setaria faberii); assay: Test A preemergence, giant foxtail; conditions: visual rating after approx. 10 d, 0 to 100 scale, 0 no effect, 100 complete control
# Description: as §1
# [8] = test system: ragweed (common ragweed, Ambrosia elatior); assay: Test A preemergence, ragweed; conditions: visual rating after approx. 10 d, 0 to 100 scale, 0 no effect, 100 complete control
# Description: as §1
# [9] = test system: barnyardgrass (Echinochloa crus-galli); assay: Test A postemergence, barnyardgrass; conditions: visual rating after approx. 10 d, 0 to 100 scale, 0 no effect, 100 complete control
# Description: as §1
# kochia (Kochia scoparia) [10] = assay: Test A postemergence, kochia; conditions: visual rating after approx. 10 d, 0 to 100 scale, 0 no effect, 100 complete control
# Description: as §1
# [11] = test system: ducksalad (Heteranthera limosa); assay: Test B flooded paddy test, ducksalad; conditions: applied to paddy water at 2-leaf stage, 13 to 15 d, scale 0 no effect to 100 complete control
# Method: (§2) Plant species in the flooded paddy test selected from rice (Oryza sativa), sedge, umbrella (small-flower umbrella sedge, Cyperus difformis), ducksalad (Heteranthera limosa), and barnyardgrass (Echinochloa crus-galli) were grown to the 2-leaf stage for testing. At time of treatment, test pots were flooded to 3 cm above the soil surface, treated by application of test compounds directly to the paddy water, and then maintained at that water depth for the duration of the test. Treated plants and controls were maintained in a greenhouse for 13 to 15 d, after which time all species were compared to controls and visually evaluated. Plant response ratings, summarized in Table B, are based on a scale of 0 to 100 where 0 is no effect and 100 is complete control. A dash (-) response means no test result.
# [12] = test system: galium (catchweed bedstraw, Galium aparine); assay: Test A postemergence, galium; conditions: visual rating after approx. 10 d, 0 to 100 scale, 0 no effect, 100 complete control
# Description: as §1
# rice (Oryza sativa) = assay: Test B flooded paddy test, rice; conditions: applied to paddy water at 2-leaf stage, 13 to 15 d, scale 0 no effect to 100 complete control
# Method: as §2
# kochia (Kochia scoparia) [13] = assay: Test A preemergence, kochia; conditions: visual rating after approx. 10 d, 0 to 100 scale, 0 no effect, 100 complete control
# Description: as §1
# [14] = test system: pigweed (Amaranthus retroflexus); assay: Test A preemergence, pigweed; conditions: visual rating after approx. 10 d, 0 to 100 scale, 0 no effect, 100 complete control
# Description: as §1
# corn (Zea mays) = assay: Test A postemergence, corn; conditions: visual rating after approx. 10 d, 0 to 100 scale, 0 no effect, 100 complete control
# Description: as §1
# [15] = test system: barnyardgrass (Echinochloa crus-galli); assay: Test B flooded paddy test, barnyardgrass; conditions: applied to paddy water at 2-leaf stage, 13 to 15 d, scale 0 no effect to 100 complete control
# Method: as §2
# [16] = test system: ragweed (common ragweed, Ambrosia elatior); assay: Test A postemergence, ragweed; conditions: visual rating after approx. 10 d, 0 to 100 scale, 0 no effect, 100 complete control
# Description: as §1
# [17] = test system: sedge, umbrella (small-flower umbrella sedge, Cyperus difformis); assay: Test B flooded paddy test, umbrella sedge; conditions: applied to paddy water at 2-leaf stage, 13 to 15 d, scale 0 no effect to 100 complete control
# Method: as §2
# [18] = test system: foxtail, giant (giant foxtail, Setaria faberii); assay: Test A postemergence, giant foxtail; conditions: visual rating after approx. 10 d, 0 to 100 scale, 0 no effect, 100 complete control
# Description: as §1
Compound,"Plant response rating, Wheat ([1]; 125 g ai/ha)","Plant response rating, Wheat ([1]; 500 g ai/ha)","Plant response rating, Blackgrass ([2]; 125 g ai/ha)","Plant response rating, Blackgrass ([2]; 500 g ai/ha)","Plant response rating, Ryegrass, Italian ([3]; 125 g ai/ha)","Plant response rating, Ryegrass, Italian ([3]; 500 g ai/ha)","Plant response rating, Ryegrass, Italian ([4]; 125 g ai/ha)","Plant response rating, Ryegrass, Italian ([4]; 500 g ai/ha)","Plant response rating, Pigweed ([5]; 125 g ai/ha)","Plant response rating, Pigweed ([5]; 500 g ai/ha)","Plant response rating, Barnyardgrass ([6]; 125 g ai/ha)","Plant response rating, Barnyardgrass ([6]; 500 g ai/ha)","Plant response rating, Foxtail, Giant ([7]; 125 g ai/ha)","Plant response rating, Foxtail, Giant ([7]; 500 g ai/ha)","Plant response rating, Ragweed ([8]; 125 g ai/ha)","Plant response rating, Ragweed ([8]; 500 g ai/ha)","Plant response rating, Barnyardgrass ([9]; 125 g ai/ha)","Plant response rating, Barnyardgrass ([9]; 500 g ai/ha)","Plant response rating, Kochia (kochia (Kochia scoparia) [10]; 125 g ai/ha)","Plant response rating, Kochia (kochia (Kochia scoparia) [10]; 500 g ai/ha)",other results
O=C(Nc1cccc(F)c1F)C1C(=O)OCC1c1ccc(C(F)(F)F)cc1 (racemic) [Compound 7],0,0,0,0,0,0,0,0,0,0,0,30,30,80,0,0,0,20,0,0,"Plant response rating, Flood, Ducksalad ([11]; 250 g ai/ha): 30; Plant response rating, Flood, Ducksalad ([11]; 1000 g ai/ha): 40; Plant response rating, Galium ([12]; 125 g ai/ha): 0; Plant response rating, Galium ([12]; 500 g ai/ha): 0; Plant response rating, Flood, Rice (rice (Oryza sativa); 250 g ai/ha): 0; Plant response rating, Flood, Rice (rice (Oryza sativa); 1000 g ai/ha): 0; Plant response rating, Kochia (kochia (Kochia scoparia) [13]; 125 g ai/ha): 0; Plant response rating, Kochia (kochia (Kochia scoparia) [13]; 500 g ai/ha): 0; Plant response rating, Pigweed ([14]; 125 g ai/ha): 0; Plant response rating, Pigweed ([14]; 500 g ai/ha): 0; Plant response rating, Corn (corn (Zea mays); 125 g ai/ha): 0; Plant response rating, Corn (corn (Zea mays); 500 g ai/ha): 0; Plant response rating, Flood, Barnyardgrass ([15]; 250 g ai/ha): 0; Plant response rating, Flood, Barnyardgrass ([15]; 1000 g ai/ha): 0; Plant response rating, Ragweed ([16]; 125 g ai/ha): 0; Plant response rating, Ragweed ([16]; 500 g ai/ha): 0; Plant response rating, Flood, Sedge, Umbrella ([17]; 250 g ai/ha): 0; Plant response rating, Flood, Sedge, Umbrella ([17]; 1000 g ai/ha): 0; Plant response rating, Foxtail, Giant ([18]; 125 g ai/ha): 20; Plant response rating, Foxtail, Giant ([18]; 500 g ai/ha): 50"
O=C(Nc1ccccc1F)C1C(=O)OCC1c1ccc(C(F)(F)F)cc1 (racemic) [Compound 8],0,0,0,0,0,0,0,0,0,0,0,20,20,40,0,0,0,20,0,0,"Plant response rating, Flood, Ducksalad ([11]; 250 g ai/ha): 30; Plant response rating, Flood, Ducksalad ([11]; 1000 g ai/ha): 30; Plant response rating, Galium ([12]; 125 g ai/ha): 0; Plant response rating, Galium ([12]; 500 g ai/ha): 0; Plant response rating, Flood, Rice (rice (Oryza sativa); 250 g ai/ha): 0; Plant response rating, Flood, Rice (rice (Oryza sativa); 1000 g ai/ha): 0; Plant response rating, Kochia (kochia (Kochia scoparia) [13]; 125 g ai/ha): 0; Plant response rating, Kochia (kochia (Kochia scoparia) [13]; 500 g ai/ha): 0; Plant response rating, Pigweed ([14]; 125 g ai/ha): 0; Plant response rating, Pigweed ([14]; 500 g ai/ha): 0; Plant response rating, Corn (corn (Zea mays); 125 g ai/ha): 0; Plant response rating, Corn (corn (Zea mays); 500 g ai/ha): 0; Plant response rating, Flood, Barnyardgrass ([15]; 250 g ai/ha): 0; Plant response rating, Flood, Barnyardgrass ([15]; 1000 g ai/ha): 0; Plant response rating, Ragweed ([16]; 125 g ai/ha): 0; Plant response rating, Ragweed ([16]; 500 g ai/ha): 0; Plant response rating, Flood, Sedge, Umbrella ([17]; 250 g ai/ha): 0; Plant response rating, Flood, Sedge, Umbrella ([17]; 1000 g ai/ha): 0; Plant response rating, Foxtail, Giant ([18]; 125 g ai/ha): 20; Plant response rating, Foxtail, Giant ([18]; 500 g ai/ha): 40"
O=C(Nc1cccc(F)c1F)C1C(=O)OCC1c1cccc(C(F)(F)F)c1 (racemic) [Compound 12],0,0,0,0,0,0,0,20,0,0,20,30,30,60,0,0,40,40,0,0,"Plant response rating, Flood, Ducksalad ([11]; 500 g ai/ha): 0; Plant response rating, Galium ([12]; 125 g ai/ha): 0; Plant response rating, Galium ([12]; 500 g ai/ha): 0; Plant response rating, Flood, Rice (rice (Oryza sativa); 500 g ai/ha): 0; Plant response rating, Kochia (kochia (Kochia scoparia) [13]; 125 g ai/ha): 0; Plant response rating, Kochia (kochia (Kochia scoparia) [13]; 500 g ai/ha): 20; Plant response rating, Pigweed ([14]; 125 g ai/ha): 0; Plant response rating, Pigweed ([14]; 500 g ai/ha): 0; Plant response rating, Corn (corn (Zea mays); 125 g ai/ha): 0; Plant response rating, Corn (corn (Zea mays); 500 g ai/ha): 0; Plant response rating, Flood, Barnyardgrass ([15]; 500 g ai/ha): 0; Plant response rating, Ragweed ([16]; 125 g ai/ha): 0; Plant response rating, Ragweed ([16]; 500 g ai/ha): 0; Plant response rating, Flood, Sedge, Umbrella ([17]; 500 g ai/ha): 0; Plant response rating, Foxtail, Giant ([18]; 125 g ai/ha): 30; Plant response rating, Foxtail, Giant ([18]; 500 g ai/ha): 70"
